Assay results: ChEMBL document CHEMBL3217457, “Carbazolepyrrolo[2,1-c][1,4]benzodiazepine conjugates: design, synthesis, and biological evaluation” (Medchemcomm, 2011)

Tests used:
[1] = Growth inhibition of human BT549 cells; type: functional; conditions: BT-549
SW-620 = assay: Growth inhibition of human SW620 cells; type: functional
Malme-3M = assay: Growth inhibition of human MALME-3M cells; type: functional
[2] = Growth inhibition of human UO31 cells; type: functional; conditions: UO-31
[3] = Growth inhibition of human OVCAR4 cells; type: functional; conditions: OVCAR-4
SNB-75 = assay: Growth inhibition of human SNB75 cells; type: functional
[4] = Growth inhibition of human UACC257 cells; type: functional; conditions: UACC-257
DU-145 = assay: Growth inhibition of human DU145 cells; type: functional
[5] = Growth inhibition of human HOP92 cells; type: functional; conditions: HOP-92
MCF7 [6] = assay: Cell cycle arrest in human MCF7 cells assessed as accumulation at G0/G1 phase at 4 uM after 24 hrs by propidium iodide staining based flow cytometry (reference value: 60.75%); type: functional
MCF7 [7] = assay: Cell cycle arrest in human MCF7 cells assessed as accumulation at G1 phase at 4 uM after 24 hrs by propidium iodide staining based flow cytometry (reference value: 57.98%); type: functional
[8] = Growth inhibition of human OVCAR3 cells; type: functional; conditions: OVCAR-3
SF-268 = assay: Growth inhibition of human SF268 cells; type: functional
NCI-H226 = assay: Growth inhibition of human NCI-H226 cells; type: functional
IGROV-1 = assay: Growth inhibition of human IGROV1 cells; type: functional
Calf thymus DNA = assay: Binding affinity to calf thymus DNA assessed as change in melting temperature at compound to DNA ratio of 1:5 after 18 hrs by thermal denaturation analysis; type: nucleic-acid assay; conditions: Bos taurus
MCF7 [9] = assay: Cell cycle arrest in human MCF7 cells assessed as accumulation at G0 phase at 4 uM after 24 hrs by propidium iodide staining based flow cytometry (reference value: 2.77%); type: functional
SR = assay: Growth inhibition of human SR cells; type: functional
HL-60(TB) = assay: Growth inhibition of human HL-60(TB) cells; type: functional
SK-MEL-28 = assay: Growth inhibition of human SK-MEL-28 cells; type: functional
COLO 205 = assay: Growth inhibition of human COLO205 cells; type: functional
MDA-MB-468 = assay: Growth inhibition of human MDA-MB-468 cells; type: functional
CCRF-CEM = assay: Growth inhibition of human CCRF-CEM cells; type: functional
[10] = Growth inhibition of human Hs 578T cells; type: functional
[11] = Growth inhibition of human Gurav cells; type: functional
786-0 = assay: Growth inhibition of human 786-0 cells; type: functional
NCI-H23 = assay: Growth inhibition of human NCI-H23 cells; type: functional
NCI-H322M = assay: Growth inhibition of human NCI-H322M cells; type: functional
NCI-H460 = assay: Growth inhibition of human NCI-H460 cells; type: functional
KM12 = assay: Growth inhibition of human KM12 cells; type: functional
T47D = assay: Growth inhibition of human T47D cells; type: functional
TK-10 = assay: Growth inhibition of human TK10 cells; type: functional
HT-29 = assay: Growth inhibition of human HT-29 cells; type: functional
MDA-MB-435 = assay: Growth inhibition of human MDA-MB-435 cells; type: functional
K562 = assay: Growth inhibition of human K562 cells; type: functional
HCT-116 = assay: Growth inhibition of human HCT116 cells; type: functional
NCI-H522 = assay: Growth inhibition of human NCI-H522 cells; type: functional
MCF7 [12] = assay: Growth inhibition of human MCF7 cells; type: functional
[13] = Growth inhibition of human UACC62 cells; type: functional; conditions: UACC-62
A549 [14] = assay: Growth inhibition of human A549 cells; type: functional
[15] = Growth inhibition of human HCT15 cells; type: functional; conditions: HCT-15
ACHN = assay: Growth inhibition of human ACHN cells; type: functional
A2780 = assay: Growth inhibition of human A2780 cells; type: functional
SK-OV-3 = assay: Growth inhibition of human SKOV3 cells; type: functional
PC-3 = assay: Growth inhibition of human PC3 cells; type: functional
[16] = Growth inhibition of human OVCAR8 cells; type: functional; conditions: OVCAR-8
[17] = Growth inhibition of human MOLT4 cells; type: functional; conditions: MOLT-4
[18] = Growth inhibition of human SF539 cells; type: functional; conditions: SF-539
MCF7 [19] = assay: Cell cycle arrest in human MCF7 cells assessed as accumulation at G2/M phase at 4 uM after 24 hrs by propidium iodide staining based flow cytometry (reference value: 24.95%); type: functional
KB = assay: Growth inhibition of human KB cells; type: functional
SNB-19 = assay: Growth inhibition of human SNB19 cells; type: functional
A549 [20] = assay: Growth inhibition of human A549/ATCC cells; type: functional
U-251 = assay: Growth inhibition of human U251 cells; type: functional
CAKI-1 = assay: Growth inhibition of human CAKI-1 cells; type: functional
M14 = assay: Growth inhibition of human M14 cells; type: functional
SN12C = assay: Growth inhibition of human SN12C cells; type: functional
[21] = Growth inhibition of human OVCAR5 cells; type: functional; conditions: OVCAR-5
A498 = assay: Growth inhibition of human A498 cells; type: functional
[22] = Growth inhibition of human MDA-MB cells; type: functional
[23] = Growth inhibition of human HCC2998 cells; type: functional; conditions: HCC 2998
[24] = Growth inhibition of human LOXIMVI cells; type: functional; conditions: LOX IMVI
[25] = Growth inhibition of human RXF393 cells; type: functional; conditions: RXF 393
SK-MEL-2 = assay: Growth inhibition of human SK-MEL-2 cells; type: functional
ZR-75-1 = assay: Growth inhibition of human ZR-75-1 cells; type: functional
RPMI-8226 = assay: Growth inhibition of human RPMI8226 cells; type: functional
HOP-62 = assay: Growth inhibition of human HOP62 cells; type: functional
[26] = Growth inhibition of human EKVX cells; type: functional
SK-MEL-5 = assay: Growth inhibition of human SK-MEL-5 cells; type: functional
SiHa = assay: Growth inhibition of human SiHa cells; type: functional
MCF7 [27] = assay: Cell cycle arrest in human MCF7 cells assessed as accumulation at S phase at 4 uM after 24 hrs by propidium iodide staining based flow cytometry (reference value: 14.30%); type: functional

COc1cc2c(cc1OCCCCCn1c3ccccc3c3ccccc31)N=C[C@@H]1CCCN1C2=O
GI50 [1]: 2.03 µM | GI50 (SW-620): 1.85 µM | GI50 (Malme-3M): 2.2 µM | GI50 [2]: 1.52 µM | GI50 [3]: 3.09 µM | GI50 (SNB-75): 1.05 µM | GI50 [4]: 2.29 µM | GI50 (DU-145): 2.23 µM | GI50 [5]: 1.31 µM | Activity (MCF7 [6]): 71.69% | Activity (MCF7 [7]): 68.24% | GI50 [8]: 1.88 µM | GI50 (SF-268): 1.91 µM | GI50 (NCI-H226): 2.49 µM | GI50 (IGROV-1): 2.08 µM | ΔTm (Calf thymus DNA): 4.9 °C | Activity (MCF7 [9]): 3.45% | GI50 (SR): 1.54 µM | GI50 (HL-60(TB)): 1.72 µM | GI50 (SK-MEL-28): 1.8 µM | GI50 (COLO 205): 1.64 µM | GI50 (MDA-MB-468): 2.26 µM | GI50 (CCRF-CEM): 1.97 µM | GI50 [10]: 1.97 µM | GI50 [11]: 1.61 µM | GI50 (786-0): 1.73 µM | GI50 (NCI-H23): 2.69 µM | GI50 (NCI-H322M): 3.83 µM | GI50 (NCI-H460): 1.96 µM | GI50 (KM12): 1.96 µM | GI50 (T47D): 2.79 µM | GI50 (TK-10): 2.25 µM | GI50 (HT-29): 2.08 µM | GI50 (MDA-MB-435): 1.73 µM | GI50 (K562): 2.6 µM | GI50 (HCT-116): 1.65 µM | GI50 (NCI-H522): 1.65 µM | GI50 (MCF7 [12]): 1.64 µM | GI50 [13]: 1.86 µM | GI50 (A549 [14]): 1.42 µM | GI50 [15]: 1.67 µM | GI50 (ACHN): 1.77 µM | GI50 (A2780): 1.32 µM | GI50 (SK-OV-3): 4.57 µM | GI50 (PC-3): 2.3 µM | GI50 [16]: 2.55 µM | GI50 [17]: 2.15 µM | GI50 [18]: 1.85 µM | Activity (MCF7 [19]): 15.38% | GI50 (KB): 1.8 µM | GI50 (SNB-19): 2.05 µM | GI50 (A549 [20]): 1.57 µM | GI50 (U-251): 1.59 µM | GI50 (CAKI-1): 1.93 µM | GI50 (M14): 2.1 µM | GI50 (SN12C): 1.94 µM | GI50 [21]: 2.42 µM | GI50 (A498): 1.74 µM | GI50 [22]: 2.14 µM | GI50 [23]: 1.71 µM | GI50 [24]: 2.08 µM | GI50 [25]: 4.34 µM | GI50 (SK-MEL-2): 1.67 µM | GI50 (ZR-75-1): 1.76 µM | GI50 (RPMI-8226): 1.72 µM | GI50 (HOP-62): 1.8 µM | GI50 [26]: 5.27 µM | GI50 (SK-MEL-5): 1.73 µM | GI50 (SiHa): 1.68 µM | Activity (MCF7 [27]): 13.03%
